Source: the NIST ThermoML archive (doi:10.1016/j.tca.2019.05.008)

Key:
[1] = Fast Scanning Calorimeter Method
[2] = molar heat capacity at constant pressure; conditions: 101.33 kPa, Crystal, DSC

Cn1c(=O)c2c(ncn2C)n(C)c1=O [caffeine]
[1], Crystal 1
Conditions | vapor or sublimation pressure [kPa]
394.7 K | 0.0031
398.4 K | 0.0035
399.8 K | 0.0039
404.1 K | 0.0067
408.2 K | 0.0092
409.7 K | 0.0099
413.5 K | 0.0116
417.9 K | 0.0158
419.5 K | 0.019
422.8 K | 0.023
427.7 K | 0.0336
429.4 K | 0.0376
432.2 K | 0.0467
437.4 K | 0.0651
439.3 K | 0.0736
441.6 K | 0.0874
447.2 K | 0.1252
449.1 K | 0.1611
451 K | 0.1622
457 K | 0.2346
459 K | 0.2609
460.4 K | 0.2914
466.7 K | 0.4121
468.9 K | 0.4821
469.8 K | 0.4864
476.5 K | 0.7169
478.7 K | 0.8343
479.2 K | 0.9112
486.2 K | 1.078
488.6 K | 1.415

Cn1c(=O)c2[nH]cnc2n(C)c1=O [3,7-dihydro-1,3-dimethyl-1H-purine-2,6-dione]
[2]
Conditions | molar heat capacity at constant pressure [J/K/mol]
230 K | 159.6
240 K | 164.8
250 K | 170
260 K | 175.1
270 K | 180.2
280 K | 185.3
290 K | 190.3
300 K | 195.4
310 K | 200.4
320 K | 205.3
330 K | 210.3
340 K | 215.2
350 K | 220.1
360 K | 224.9
370 K | 229.7
380 K | 234.5
390 K | 239.3
400 K | 244
410 K | 248.7
420 K | 253.4

[1], Crystal
Conditions | vapor or sublimation pressure [kPa]
441.6 K | 0.0028
447.2 K | 0.0033
449.1 K | 0.0047
451 K | 0.0061
457 K | 0.0072
459 K | 0.0108
460.4 K | 0.0109
466.7 K | 0.0133
468.9 K | 0.0192
469.8 K | 0.021
476.5 K | 0.0261
478.7 K | 0.0365
479.2 K | 0.0409
486.2 K | 0.0532
496 K | 0.1094
498 K | 0.1408
498.5 K | 0.1485
505.7 K | 0.1888
507.4 K | 0.2298
508.3 K | 0.2823
515.5 K | 0.3649
516.8 K | 0.3867
518.2 K | 0.4909
525.2 K | 0.563
526.2 K | 0.8232
528.1 K | 0.8994
535 K | 1.001
537.9 K | 1.619

O=C1c2ccccc2C(=O)c2ccccc21 [9,10(9H,10H)-anthracenedione]
[2]
Conditions | molar heat capacity at constant pressure [J/K/mol]
230 K | 182.5
240 K | 188.9
250 K | 195.4
260 K | 201.9
270 K | 208.3
280 K | 214.8
290 K | 221.3
300 K | 227.8
310 K | 234.3
320 K | 240.8
330 K | 247.3
340 K | 253.8
350 K | 260.4
360 K | 266.9
370 K | 273.5
380 K | 280
390 K | 286.6
400 K | 293.2
410 K | 299.8
420 K | 306.4

[1], Crystal
Conditions | vapor or sublimation pressure [kPa]
422.8 K | 0.0135
427.7 K | 0.0152
429.2 K | 0.0165
432.2 K | 0.0209
437.4 K | 0.0345
439.1 K | 0.0354
441.6 K | 0.0381
447.2 K | 0.0511
448.9 K | 0.0693
451 K | 0.0839
457 K | 0.1042
458.8 K | 0.148
460.4 K | 0.1696
466.7 K | 0.1977
468.7 K | 0.2749
469.8 K | 0.2497
476.5 K | 0.3235
478.5 K | 0.487
